The values that follow come from PubChem BioAssay (NCI).

“And” between values parts separate entries of the source, which are not always exact repeats. Identical values can stand only once.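 Interpolation was linear, between the two tested concentrations surrounding the appropriate level; five concentrations were tested over 48 hours in 96-well plates. The concentration for 50% growth inhibition is given as GI50. TGI: total growth inhibition.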

Holding throughout (test): NCI anticancer screen, dose series, 48 h
Test [1] deals with RPMI-8226 leukemia.
Test [2] concerns SF-295 CNS.
Test [3] relates to DU-145 prostate.
Test [4] relates to HT29 colon.
In test [5] the test system is UACC-257 melanoma.
Test [6] deals with SR leukemia.
The test system of test [7] is 786-0 renal.
Test [8] has as its system RXF 393 renal.
In test [9] the test system is KM12 colon.

In the case of `Cc1ccc2c(c1)Sc1c(ccc3ccccc13)N2`, the GI50 in [1] is 13.4 µM; in [2], 15.4 µM; in test [3] it was greater than 100 µM; in [4], 51.2 µM; in test [5], greater than 100 µM; in test [6], 4.4 µM. Besides, the GI50 is greater than 100 µM in test [7], greater than 100 µM in test [8] and 48.7 µM in test [9]. The TGI in test [1], in test [2], in test [3], in test [4], in test [5] and in [6] was greater than 100 µM each time. The TGI in [7], in test [8] and in test [9] was greater than 100 µM in each case.
Consider `O=c1cc(-c2ccccc2)oc2cc(OC/C(=N/O)c3ccccc3)ccc12`, for which the GI50 is 6.69 µM in test [1]; 6 µM in [2]; 25.1 µM in [3]; 22.4 µM in [4]; greater than 50 µM in test [5]; 31.8 µM in test [6]. The GI50 in test [7] was 26.1 µM; in test [8], 16 µM; in test [9] it was 13.2 µM. The TGI was greater than 50 µM in test [1]; 23.4 µM in test [2]; greater than 50 µM in test [3]; greater than 50 µM in test [4]; greater than 50 µM in test [5]; greater than 50 µM in test [6]. Also, the TGI in test [7], in [8] and in test [9] was greater than 50 µM throughout.
For the compound `Cc1cc(Cl)cc2c1NC(=O)C2(O)CC(=O)c1ccco1` (centres undefined), the TGI in test [1] is greater than 83.7 µM; in [2] it was greater than 100 µM; in test [3], greater than 100 µM; in [4], greater than 100 µM; in test [5], greater than 100 µM; in [6] it was 64.7 µM. The TGI in test [7], in test [8] and in test [9] was greater than 100 µM each time.
Regarding `CC1(C)OC2=C(CC1Br)C(=O)C(=O)c1ccccc12` (centres undefined), the GI50 in [1] was 2.65 µM; in [3], 1.67 µM; in [4] it was 2.4 µM; in test [5], 1.76 µM; in test [6], 3.97 µM; in [7] it was 1.91 µM. Further, the values for the GI50 in test [8] and in test [9] were 1.9 µM and 1.75 µM, respectively. The TGI in test [1] stood at 6.82 µM; in test [3], 3.05 µM; in [4], 5.25 µM; in [5], 3.27 µM; in test [6], 7.44 µM; in test [7], 3.43 µM. The TGI stood at 3.33 µM in test [8] and 3.19 µM in test [9].
For `O=C(Nc1ccncc1)C(=O)c1cn(S(=O)(=O)c2cccc(F)c2)c2ccccc12`, the GI50 was 1.58 µM in test [1]; 2.84 µM in test [2]; 6.2 µM in test [3]; 1.77 µM in test [4]; 13.5 µM in test [5]; 0.552 µM in test [6]. In addition, the GI50 is 3.64 µM in [7], 8.88 µM in test [8] and 3.04 µM in [9]. Further, the TGI is greater than 100 µM in test [1]; 27.5 µM in test [2]; greater than 100 µM in [3]; 14.9 µM in test [4]; greater than 100 µM in [5]; greater than 100 µM in test [6]. Besides, the values for the TGI in [7], in test [8] and in test [9] were greater than 100 µM, 66.8 µM and greater than 100 µM, respectively.
Regarding `N#CC(C#N)=C1Nc2ccccc2S1`, the GI50 was 33.6 µM in test [1]; 24.3 µM in test [2]; 49.2 µM in [3]; 21.4 µM in [5]; 25.6 µM in [6]; 41 µM in test [7]. The GI50 in [8] was 36 µM; in test [9], 34.8 µM. In addition, the TGI is 79.7 µM in test [1]; 69 µM in [2]; greater than 100 µM in [3]; 68.7 µM in [5]; 51.9 µM in test [6]; greater than 100 µM in test [7]. Further, the TGI in test [8] and in [9] was greater than 100 µM each time.
For the compound `COc1ccc(-c2nc(-c3nc4ccc(Cl)cc4[nH]3)c3ccccn23)cc1`, the GI50 is 3.55 µM in test [1]; 3.27 µM in [3]; 3.66 µM in test [4]; 2.63 µM in test [5]; 12.6 µM in test [6]; 1.6 µM in test [7]. The GI50 in test [8] was 1.94 µM; in test [9], 7.68 µM. For the same compound, the TGI in test [1] is 58.3 µM; in test [3], 11.1 µM; in [4], 14.2 µM; in test [5], 8.5 µM; in test [6], greater than 100 µM; in [7], 3.22 µM. Besides, the TGI in test [8] is 3.85 µM; in [9] it was greater than 100 µM.
Regarding `CC(=O)O[C@H]1C(=O)[C@@]2(C)C(C(OC(=O)c3ccccc3)[C@]3(O)CC(OC(=O)[C@H](OC(=O)CCC(=O)O)C(NC(=O)c4ccccc4)c4ccccc4)C(C)=C1C3(C)C)C1(OC(C)=O)COC1C[C@@H]2O` (some centres undefined), the TGI was less than 0.01 µM in test [1]; 2.27 µM in [2]; 0.0715 µM and 0.193 µM in test [3]; greater than 100 µM in test [5]; < 0.01 µM and 0.0173 µM in [6]; greater than 100 µM in [7]. For the same compound, the TGI in test [8] amounted to 2.79 µM. Also, the GI50 in [2] was 0.0471 µM and 0.18 µM; in [3] it was < 0.01 µM and 0.0319 µM; in test [5], < 0.01 µM and 0.0295 µM; in test [7], 0.0303 µM and 0.108 µM; in test [8] it was < 0.0249 µM and 0.0528 µM.
In the case of `NC(=O)NS(=O)(=O)c1ccc(N2N=C(C(F)(F)F)CC2c2cc(C(F)(F)F)cc(C(F)(F)F)c2)cc1` (centres undefined), the GI50 in [1] is 1.38 µM; in [3] it was 3.54 µM; in [4] it was 3.1 µM; in test [5], 2.58 µM; in [6] it was 3.08 µM; in [7] it was 7.14 µM. For the same compound, the GI50 in [8] was 2.86 µM; in test [9], 1.83 µM. The TGI is 3.74 µM in test [1]; 15.1 µM in test [3]; 13 µM in test [4]; 7.18 µM in test [5]; greater than 100 µM in [6]; 22.7 µM in [7]. Also, the TGI in [8] turned out to be 5.77 µM; in [9], 4.65 µM.
